According to US6506766B1 (Abbott Laboratories, priority 1998, dated 2003):

Tests used:
[1] = molecular target: T1, human glucocorticoid receptor-α [GRX] isoform (Homo sapiens, UniProt P04150); assay: Radioligand binding with human glucocorticoid receptor cytosol ([3H]-dexamethasone competition); details: GRX cytosol expressed in insect SF21 cells, [3H]-Dex ~0.9 nM, 4° C. overnight; Ki by Cheng-Prusoff, KL ~[…]; read-out: Ki (nM) GR
T1 construct: host or cells: insect SF21 cells (baculovirus)
T1 sequence (P04150 1-777): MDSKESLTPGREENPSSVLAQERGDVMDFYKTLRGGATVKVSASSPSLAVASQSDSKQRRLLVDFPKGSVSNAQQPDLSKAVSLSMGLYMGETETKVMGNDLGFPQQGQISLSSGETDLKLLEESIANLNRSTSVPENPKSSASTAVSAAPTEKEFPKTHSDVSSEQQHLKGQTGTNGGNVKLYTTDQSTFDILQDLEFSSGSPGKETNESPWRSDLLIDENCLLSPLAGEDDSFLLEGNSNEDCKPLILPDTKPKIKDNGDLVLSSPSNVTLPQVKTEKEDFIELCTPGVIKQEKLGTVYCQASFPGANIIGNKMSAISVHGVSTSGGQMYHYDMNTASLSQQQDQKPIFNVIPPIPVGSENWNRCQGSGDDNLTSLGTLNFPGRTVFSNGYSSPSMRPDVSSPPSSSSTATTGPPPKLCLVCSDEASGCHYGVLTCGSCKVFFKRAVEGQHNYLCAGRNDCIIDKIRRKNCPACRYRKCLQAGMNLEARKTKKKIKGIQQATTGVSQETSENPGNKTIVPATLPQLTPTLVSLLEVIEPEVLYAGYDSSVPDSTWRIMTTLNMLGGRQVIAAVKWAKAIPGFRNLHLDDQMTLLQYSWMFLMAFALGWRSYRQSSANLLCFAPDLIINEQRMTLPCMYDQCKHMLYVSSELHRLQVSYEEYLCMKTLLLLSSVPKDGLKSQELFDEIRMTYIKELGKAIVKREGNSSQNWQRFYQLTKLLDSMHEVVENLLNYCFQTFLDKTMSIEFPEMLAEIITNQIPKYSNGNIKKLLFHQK

[2] = molecular target: T2, human progesterone receptor-A [PRA] isoform (Homo sapiens, UniProt P06401); assay: Radioligand binding with human progesterone receptor cytosol ([3H]-progesterone competition); details: PRA cytosol expressed in insect SF21 cells, [3H]Prog ~0.8 nM, 4° C. overnight; Ki by Cheng-Prusoff, KL ~4.5 nM; read-out: Ki (nM) PR
T2 construct: host or cells: insect SF21 cells (baculovirus)
T2 sequence (P06401 1-769 isoform P06401-2): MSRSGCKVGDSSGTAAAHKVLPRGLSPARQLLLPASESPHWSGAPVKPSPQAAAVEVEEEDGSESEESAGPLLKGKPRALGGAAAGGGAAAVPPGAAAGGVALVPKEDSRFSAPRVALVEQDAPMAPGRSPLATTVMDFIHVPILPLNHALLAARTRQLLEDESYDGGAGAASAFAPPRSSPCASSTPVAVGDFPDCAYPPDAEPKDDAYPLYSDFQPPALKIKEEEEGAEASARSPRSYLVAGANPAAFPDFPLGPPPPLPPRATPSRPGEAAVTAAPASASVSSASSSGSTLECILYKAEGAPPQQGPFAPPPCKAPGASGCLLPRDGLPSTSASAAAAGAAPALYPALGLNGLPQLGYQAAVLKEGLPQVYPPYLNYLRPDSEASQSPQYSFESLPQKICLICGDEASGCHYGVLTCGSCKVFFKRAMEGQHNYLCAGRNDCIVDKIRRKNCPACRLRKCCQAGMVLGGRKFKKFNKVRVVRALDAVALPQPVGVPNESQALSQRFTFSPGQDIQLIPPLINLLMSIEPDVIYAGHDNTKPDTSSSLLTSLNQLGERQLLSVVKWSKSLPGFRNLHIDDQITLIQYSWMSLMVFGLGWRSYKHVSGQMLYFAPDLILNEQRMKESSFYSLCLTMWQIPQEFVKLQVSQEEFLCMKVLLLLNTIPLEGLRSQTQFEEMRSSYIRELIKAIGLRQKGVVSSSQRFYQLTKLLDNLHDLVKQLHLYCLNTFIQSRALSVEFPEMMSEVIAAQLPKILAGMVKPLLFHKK

| Ki [1] [nM] | Ki [2] [nM] | SMILES |
| --- | --- | --- |
| 9.5 | 1560 | CC1=CC(C)(C)Nc2ccc3c(c21)C(c1ccccc1)Oc1cccc(CO)c1-3 (stereo not shown) [Example 336, 2,5-Dihydro-10-(hydroxymethyl)-5-phenyl-2,2,4-trimethyl-1H-[1]benzopyrano[3,4-f]quinoline] |
| 3.3 | 702 | CC1=CC(C)(C)Nc2ccc3c(c21)C(c1ccccc1)Oc1cccc(C=O)c1-3 (stereo not shown) [Example 337, 2,5-Dihydro-10-formyl-5-phenyl-2,2,4-trimethyl-1H-[1]benzopyrano[3,4-f]quinoline] |
| 61 | ≥ 10000 | COCc1cccc2c1-c1ccc3c(c1C(c1ccccc1)O2)C(C)=CC(C)(C)N3 (stereo not shown) [Example 338, 2,5-Dihydro-10-(methoxymethyl)-5-phenyl-2,2,4-trimethyl-1H-[1]benzopyrano[3,4-f]quinoline] |
| 1.8 | 254 | C=Cc1cccc2c1-c1ccc3c(c1C(C1C=CCCC1)O2)C(C)=CC(C)(C)N3 (stereo not shown) [Example 340] |
| 2.5 | ≥ 10000 | C=Cc1cccc2c1-c1ccc3c(c1C(C1C=C(C)CCC1)O2)C(C)=CC(C)(C)N3 (stereo not shown) [Example 341] |
| 2590 | ≥ 10000 | C=CCC1Oc2cccc(SC)c2-c2ccc3c(c21)C(C)=CC(C)(C)N3 (stereo not shown) [Example 342, 2,5-Dihydro-5-(3-propenyl)-10-methylthio-2,2,4-trimethyl-1H-[1]benzopyrano[3,4-f]quinoline] |
| 5.2 | 4700 | C=CCC1Oc2cccc(SC)c2-c2ccc3c(c21)C(C)=CC(C)(C)N3 (stereo not shown) [Example 343, 2,5-Dihydro-5-(3-propenyl)-10-methylthio-2,2,4-trimethyl-1H-[1]benzopyrano[3,4-f]quinoline] |
| 8.7 | 3000 | CC1=CC(C)(C)Nc2ccc3c(c21)C(c1ccccc1)Oc1cccc(OC(F)F)c1-3 (stereo not shown) [Example 345, 10-(Difluoromethoxy)-2,5-dihydro-5-phenyl-2,2,4-trimethyl-1H-[1]benzopyrano[3,4-f]quinoline] |
| 44 | 5110 | CC1=CC(C)(C)Nc2ccc3c(c21)C(c1ccccc1)Oc1cccc(OC(F)(F)Br)c1-3 (stereo not shown) [Example 346, 10-(Bromodifluoromethoxy)-2,5-dihydro-5-phenyl-2,2,4-trimethyl-1H-[1]benzopyrano[3,4-f]quinoline] |
| 128 | ≥ 10000 | C=C1CC(C)(C)Nc2ccc3c(c21)C(c1ccccc1)Oc1cccc(OC(F)(F)Br)c1-3 (stereo not shown) [Example 347, 10-(Bromodifluoromethoxy)-5-phenyl-2,2-dimethyl-4-methylene-2,3,4,5-tetrahydro-1H-chromeno[3,4-f]quinoline] |
| 0.89 | 171 | COc1c(O)ccc2c1-c1ccc3c(c1C(Cc1ccccc1F)O2)C(C)=CC(C)(C)N3 (stereo not shown) [Example 348, 2,5-Dihydro-9-hydroxy-10-methoxy-2,2,4-trimethyl-5-((2-fluorophenyl)methyl)-1H-[1]benzopyranol[3,4-f]quinoline] |
| 6.22 | ≥ 10000 | COc1cccc2c1-c1ccc3c(c1C(=Cc1cc(C)no1)O2)C(C)=CC(C)(C)N3 [Example 350, 10-Methoxy-5-(3-methylisoxazol-5-yl)methyidene-2,5-dihydro-5-phenyl-2,2,4-trimethyl-1H-[1]benzopyrano[3,4-f]quinoline] |
| 58 | ≥ 10000 | COc1cccc2c1-c1ccc3c(c1C(=Cc1cccc(Cl)n1)O2)C(C)=CC(C)(C)N3 [Example 352] |
| 27 | 4280 | CCC(C)=C1Oc2cccc(OC)c2-c2ccc3c(c21)C(C)=CC(C)(C)N3 [Example 355, 10-Methoxy-5-(1-methylpropylidene)-2,5-dihydro-5-phenyl-2,2,4-trimethyl-1H-[1]benzopyrano[3,4-f]quinoline] |
| 59.8 | ≥ 10000 | COc1cccc2c1-c1ccc3c(c1C(c1ccccc1)O2)C(C)=[N+]([O-])C(C)(C)N3 (stereo not shown) [Example 357, 2,5-Dihydro-10-methoxy-2,2,4-trimethyl-3-oxide-5-phenyl-1H-[1]benzopyrano[3,4-f]quinazoline] |
| 4.2 | 8960 | COc1cccc2c1-c1ccc3c(c1C(c1ccccc1)O2)C(C)=NC(C)(C)N3 (stereo not shown) [Example 358, 2,5-Dihydro-10-methoxy-2,2,4-trimethyl-5-phenyl-1H-[1]benzopyrano[3,4-f]quinazoline] |
| 11.3 | 2220 | C=CCC1Oc2cccc(OC)c2-c2ccc3c(c21)C(C)=CC1(CCOCC1)N3 (stereo not shown) [Example 359, 2,5-Dihydro-10-methoxy-2,2-[spiro(tetrahydro-4-pyranyl)]-4-methyl-5-ally-1H-[1]benzopyrano[3,4-f]quinoline] |
| 95.7 | 9140 | C=CCC1Oc2cccc(OC)c2-c2ccc3c(c21)C(C)=CC(CC)(CC)N3 (stereo not shown) [Example 361, 2,5-Dihydro-10-methoxy-2,2-diethyl-4-methyl-5-allyl-1H-[1]benzopyrano[3,4-f]quinoline] |
| 6.5 | 3370 | C=CCC1Oc2cccc(OC)c2-c2ccc3c(c21)C(C)=C(C)C(C)(C)N3 (stereo not shown) [Example 362, 2,5-Dihydro-10-methoxy-2,2,3,4-tetramethyl-5-allyl-1H-[1]benzopyrano[3,4-f]quinoline] |
| 5 | 3940 | C=CCC1Oc2cccc(OC)c2-c2ccc3c(c21)C(CC)=CC(C)(C)N3 (stereo not shown) [Example 363, 2,5-Dihydro-10-methoxy-2,2-dimethyl-4-ethyl-5-allyl-1H-[1]benzopyrano[3,4-f]quinoline] |
| 424 | ≥ 10000 | C=CCC1Oc2cccc(OC)c2-c2ccc3c(c21)C=C(C)C(C)(C)N3 (stereo not shown) [Example 364, 2,5-Dihydro-10-methoxy-2,2,3-trimethyl-5-allyl-1H-[1]benzopyrano[3,4-f]quinoline] |
| 2.1 | 83.9 | COc1c(O)ccc2c1-c1ccc3c(c1/C(=C/c1cc(F)ccc1F)O2)C(C)=CC(C)(C)N3 [Example 366, Z-5-(2,5-Difluorobenzylidenyl)-9-hydroxy-10-methoxy-2,2,4-trimethyl-1H-2,5-dihydro-[1]benzopyrano[3,4-f]quinoline] |
| 0.21 | 61 | CC1=CC(C)(C)Nc2ccc3c(c21)/C(=C/c1ccccn1)Oc1ccc(O)c(Cl)c1-3 [Example 368, Z-10-Chloro-9-hydroxy-5-(2-picolinylidenyl)-2,2,4-trimethyl-2,5-dihydro-1H-[1]benzopyrano[3,4-f]quinoline] |
| 0.41 | 2530 | COc1c(O)ccc2c1-c1ccc3c(c1/C(=C/c1ccccn1)O2)C(C)=CC(C)(C)N3 [Example 369, Z-9-Hydroxy-10-methoxy-5-(2-picolinylidenyl)-2,2,4-trimethyl-2,5-dihydro-1H-[1]benzopyrano[3,4-f]quinoline] |
| 1.8 | 164 | COc1c(O)ccc2c1-c1ccc3c(c1/C(=C/c1ccc(F)cc1)O2)C(C)=CC(C)(C)N3 [Example 372, (Z)9-Hydroxy-10-methoxy-5-((4-fluorophenyl)methylene)-2,2,4-trimethyl-1H-2,5-dihydro-[1]benzopyrano[3,4-f]quinoline] |
| 3.1 | 279 | COc1c(O)ccc2c1-c1ccc3c(c1/C(=C/c1cccc(F)c1F)O2)C(C)=CC(C)(C)N3 [Example 373, (Z)-9-Hydroxy-10-methoxy-5-([2,3-difluorophenyl]methylene)-2,2,4-trimethyl-1H-2,5-dihydro-[1]benzopyrano[3,4-f]quinoline] |
